Patent US3995033A, “Secondary phosphoric acid esters, composition and method of use” (priority 1971, dated 1976)
Structures can show the parent of a compound that is named as a salt.

How the values were obtained:
[1] = system: ovarian lactic acid production produced by PGE1; assay: Prostaglandin-stimulated glycolysis of the prepubertal ovary in vitro; assay type: cell-based, prepubertal rats
Description: The action of esters of the present invention on the prostaglandin-stimulated glycolysis of the prepubertal ovary is investigated. The method used has been described in detail by Perklev & Ahren (Life Sciences Part I, 10:1387, 1971). In these experiments ovaries from prepubertal rats are removed and placed in Erlenmeyer flasks containing compounds of this invention dissolved in Krebs bicarbonate buffer. After that the ovaries have been preincubated during 60 min. at 37° C in this medium, they are blotted on filter paper and then washed for 2 min. in plain buffer. The ovaries are then transferred to a new incubation medium containing prostaglandins (PG) dissolved in Krebs bicarbonate buffer and incubated at 37° C for 2 hours with continuous shaking. The ovarian glycolysis is then determined by measuring the concentration of lactic acid in the incubation medium. When polyphloretin phosphate (PPP) is present in the preincubation medium in a concentration of 500 μg/ml, the subsequent ovarian lactic acid production produced by PGE1 is reduced to about 50 % of that obtained with ovaries preincubated in plain buffer.

[2] = system: anaphylactic bronchoconstriction elicited by antigen (egg albumin), isolated perfused guinea-pig lung; assay: Anaphylactic bronchoconstriction in the isolated perfused lung of sensitized guinea-pigs
Source text: The effects of esters of the present invention on the anaphylactic reaction in guinea-pigs have been investigated using the isolated perfused guinea-pig lung preparation as described by Bhattacharya & Delaunois (Arch. Int. Pharmacodyn. 101:495, 1955). Guinea-pigs weighing about 300 g are sensitized with egg albumin according to Fredholm & Strandberg (1969). After the appropriate sensitization period the lungs are removed and mounted in a moist, thermostated chamber. The trachea and A. pulmonalis are cannulated. The arterial cannula is connected to a perfusion fluid reservoir containing Tyrode solution buffered with 10 % Sorensen phosphate buffer. The tracheal cannula is connected with tubing to a carbogen gas supply delivering a constant amount per time unit. The perfusion pressure is measured in a side arm of the tubing with a "Mercury" transducer connected to an Ultralette UV-recorder. When antigen (egg albumin), 0.1 - 1.0 μg, is injected via the arterial cannula, a broncho-constriction, indicated by an increase in the perfusion pressure, is elicited.

[3] = system: PGE1-stimulated ovarian glycolysis; assay: In vivo action on prostaglandin-stimulated glycolysis of the prepubertal ovary (i.p. injection, ovaries then incubated with PGE1); set-up: species or system Prepubertal rats of the Sprague-Dawley strain; details: injected i.p. (500 μg in 1 ml saline) one hour before removal of ovaries; PGE1 0.4 μg/ml, 2 hours
Description: Prepubertal rats, 24-26 days old, of the Sprague-Dawley strain, are injected intraperitoneally (i.p.) with 1 ml saline containing 500 μg sodium 3,5-dimethylphenyl 4-(3-(2,4,6-trihydroxyphenyl)-3-oxo-propyl)phenyl phosphate.
One hour later the animals are sacrified by cervical fracture and the ovaries are removed and trimmed free of extraneous tissue. The ovaries are then transferred to an incubation bath containing prostaglandin E1 (PGE1; 0.4 μg/ml) dissolved in Krebs bicarbonate buffer and incubated at 37° C for 2 hours with continuous shaking. The ovarian glyclysis is then determined by measuring the concentration of lactic acid in the incubation medium. The details of the method have been described previously (Perkley, T. & Ahren, K., Life Sciences Part I, 10:1387, 1971).

[4] = system: PGE2-stimulated corticosterone production by adrenals; assay: Prostaglandin-stimulated corticosterone production by rat adrenals in vitro; assay type: cell-based, Sprague-Dawley male rats; details: for Corticosterone production: mean ± standard error
Description: The inhibitory effect of esters of the present invention has been investigated on the prostaglandin-stimulated corticosterone production by adrenals from male rats in vitro. The experiments were performed using adult Sprague-Dawley male rats weighing 200-250 g, which were housed 1 per cage under conditions of controlled lighting and temperature. Animal quarters were not entered during the 18 hours preceding the experiment. The animals were sacrified by decapitation at 10 AM under conditions chosen to minimize disturbance of the animals. The adrenals were decapsulated and quartered and 8 adrenal quarters from different animals were distributed to 10 ml Erlenmeyer flasks containing 0.5 ml 0.9 % saline and 2.0 ml Krebs-Ringer bicarbonate buffer, pH 7.4. The weight of the adrenal tissue in each flask was determined. The flasks were gassed with 95 % O 2 -- 5 CO2 and preincubated at 37° C for 1 hour with continuous shaking. Following preincubation the media were decanted and discarded. One ml of Krebs-Ringer buffer, with or without the additions of prostaglandin E2 (PGE2) sodium 3,5-dimethylphenyl 4-(3-(2,4,6-trihydroxyphenyl)-3-oxopropyl)phenyl phosphate.
(for details see below) was added to the flasks, which were then gassed with 95 % 02 -- 5 % CO2 and kept at 37° C for 1 hour with continuous shaking. Following incubation, corticosterone levels were determined on 0.5 ml aliquots of the medium by the sulphuric acid fluorescence method.
In the first experiment (I) PGE2 in a concentration of 1 μg/ml was added to the incubation medium containing the quartered adrenals.
In the next experiment (II) different amounts of Leo 1258 to the incubation medium.

[5] = system: bronchial smooth muscle, isolated perfused guinea-pig lung; assay: Effect on bronchial smooth muscle, isolated perfused guinea-pig lung
Source text: The effects of esters of the present invention on bronchial smooth muscle have been investigated using an isolated perfused guinea-pig lung preparation according to Thattacharya & Delaunois (Arch. Int. Pharmacodyn. 101:495, 1955). The lungs from guinea-pigs weighing 300-400 g are removed, and the trachea and A. pulmonalis cannulated. The arterial cannula is connected to a perfusion fluid reservoir containing Tyrode solution buffered with 10 % Sorensen phosphate buffer. The tracheal cannula is connected with tubing to a carbogen gas supply delivering a constant amount per time unit. The perfusion pressure is measured in a side arm of the tubing with a "Mercury" transducer connected to an Ultralette UV-recorder. The compounds are injected via the arterial cannula, close to the entrance of A. pulmonalis in the lung.

[6] = system: gerbil colon (ascending colon) in vivo; assay: Smooth muscle stimulatory effect on the gerbil colon in vivo; set-up: species or system mongolian gerbils
Description: The experiments are performed with mongolian gerbils, anesthetized with pentobarbital, 50 mg/kg. The ascending colon is exposed and carefully stretched between silk thread loops and a strain-gauge transducer.
After a stable base-line has been established an eter of this invention, sodium 3,5-dimethylphenyl 4-(3-(2,4,6-trihydroxyphenyl)-3-oxopropyl)phenylphosphate (Leo 1258) is infused i.v.

[7] = system: gerbil colon, contractions produced by prostaglandins E1, E2, F1α and F2α; assay: PG-inhibitory effect on the isolated gerbil colon; set-up: species or system Gerbils (Meriones unguiculatus)
Description: The PG-inhibitory effect of esters of the present invention on the gerbil colon are determined using the general technique described by Eakins, Miller & Karim (J. Pharm. Exp. Ther. 176:441, 1971). Gerbils (Meriones unguiculatus) of own breed, both sexes, weighing 50-80 g are used. The animal is stunned, colon ascendens immediately removed, and a 2-3 cm piece mounted in a 6 ml bath containing a modified de Jalon solution at 28° C and continuously oxygenated. Contractions of the organ are registered either isotonicaly or isometrically. When testing the inhibitory effect of a compound this is added to the bath 2 min. before the addition of prostaglandin. The antagonist (esters of this invention) is usually dissolved in saline, but occasionally an organic solvent such as ethanol has to be included. Several concentrations of each antagonist are used. In this system prostaglandins E1, E2, F1α and F2α produce suitable contractions of the organ in the concentration range 1-50 ng/ml.
Results from these experiments give an approximation of the PG-inhibitory potency of the compounds. When more precise information about this is desired we use a more elaborate method involving the establishment of several […] dose-response curves in the presence of various concentrations of inhibitor. The method used is essentially the same as that described by Arunlakshana & Schild (Br. J. Pharm. 14:48, 1959). […]

[8] = system: contractions produced by histamine and bradykinin, isolated guinea-pig ileum; assay: Selectivity on the isolated guinea-pig ileum: histamine and bradykinin; details: concentrations as low as 5 μg/ml
[9] = system: Slow Reacting Substance (SRS) contractions of isolated guinea-pig ileum; assay: Antagonism to Slow Reacting Substance on the isolated guinea-pig ileum
Description: The antagonism to Slow Reacting Substance (SRS) is determined on the isolated guinea-pig ileum as described by Mathe & Standberg (Acta physiol. scand. 82:460, 1971). Purified SRS is obtained from cat paws perfused with compound 48/80 (Strandberg & Uvnas: Acta physiol. scand. 82.358, 1971). Sodium 4-(3-oxo-3-(2,4,6-trihydroxyphenyl)propyl)phenyl phenyl phosphate was tested in this system in several concentrations.

Cc1cc(C)cc(OP(=O)(O)Oc2ccc(CCC(=O)c3c(O)cc(O)cc3O)cc2)c1 [Leo 1258, sodium 3,5-dimethylphenyl 4-(3-(2,4,6-trihydroxyphenyl)-3-oxopropyl)phenylphosphate]
activity as a prostaglandin inhibitor relative to PPP [1]: 5-10 times | IC50 ([1]; Rattus norvegicus, 60 min. preincubation, then 2 hours with PG, read-out: concentration in the preincubation medium giving about 50 % reduction of the lactic acid production produced by PGE1): 50 to 100 µg/mL | effect on the anaphylactic bronchoconstriction ([2]; 4-20 μg/ml incorporated in the Tyrode solution): abolished or markedly reduced | ovarian glycolysis (lactic acid) compared with saline-injected animals [3]: significantly reduced | effect on the PGE2-stimulated corticosterone production ([4]; 0.25 and 1.0 mg added to the incubation bath): dose-related inhibition | Corticosterone production ([4]; Exp. II group A, Leo 1258 250 μg/ml without PGE2): 3.9±0.5 μg/100 mgx 1 h | Corticosterone production ([4]; Exp. II group C, PGE2 1 μg/ml + Leo 1258 250 μg/ml): 6.5±0.5 μg/100 mgx 1 h | Corticosterone production ([4]; Exp. II group D, PGE2 1 μg/ml + Leo 1258 1 mg/ml): 2.9±0.2 μg/100 mgx 1 h | dose showing a broncho-constricting effect ([5]; injected via the arterial cannula): ≥ 0.5 mg | reaction of the gut ([6]; 1 mg/ml in the buffer solution superfusing the gut): increase in tone | minimal effective dose ([6]; Meriones unguiculatus, iv, infused i.v., anesthetized gerbils, read-out: dose that causes the gut to respond with a series of contractions): ≥ 40 mg/kg | concentration for 50 per cent reduction of the PG-induced contraction, as fraction of that of PPP ([7]; relative to PPP): about one tenth

CCCCC[C@H](O)/C=C/[C@H]1[C@H](O)CC(=O)[C@@H]1C/C=C\CCCC(=O)O [PGE2, prostaglandin E2, reference compound]
Corticosterone production ([4]; Exp. I, PGE2 1 μg/ml alone, 4 observ.): 7.6±0.4 μg/100 mgx 1 h | Corticosterone production ([4]; Exp. II group B, PGE2 1 μg/ml alone): 8.4±0.5 μg/100 mgx 1 h | effect on the corticosterone concentration ([4]; PGE2 1 μg/ml, Exp. I): highly significant increase

O=C(CCc1ccc(OP(=O)([O-])Oc2ccccc2)cc1)c1c(O)cc(O)cc1O.[Na+] [sodium 4-(3-oxo-3-(2,4,6-trihydroxyphenyl)propyl)-phenyl phenyl phosphate]
inhibition of contractions produced by histamine and bradykinin [8]: not by histamine and bradykinin | concentration that inhibits contractions produced by SRS ([9]; concentrations as low as): 5 µg/mL | manner of the inhibition of SRS contractions ([9]; parallel shift of the dose-response curves, no change in maximum contraction): competitive

O=P(O)(Oc1ccccc1)Oc1ccccc1 [sodium salt of diphenyl phosphate, reference compound]
antagonism to SRS [9]: without effect | effect on the anaphylactic bronchoconstriction ([2]; concentration 100 μg/ml): completely lacked such an effect | broncho-constricting effect ([5]; dose of 12.8 mg): completely lacked such an effect | effect on the gut ([6]; i.v., doses up to 400 mg/kg): no effect at all | PG-inhibitory effect on the gerbil colon ([7]; concentrations 10 times as high as that of PPP): without effect
